Measurements from patent US4257941A, “Polycyclic nitrogen-containing compounds” (BASF Aktiengesellschaft, priority 1976, dated 1981).
Read-outs that look alike come from different tables or passages of the source.

Key:
[1] = test system: Avena sativa; assay: Growth height of Gramineae (Example 11, Table B); format: in vivo; settings: Avena sativa, 3.0 kg/ha, 0 = no inhibition, 100 = no growth, read-out: growth inhibition compared with untreated control
Text: (§1) The vessels used for the experiments were plastic pots having a volume of 1,130 cm^3 (Table A) or paraffined paper cups having a volume of 170 cm^3 (Table B). The pots and cups were filled with a sandy loam. The seeds of the test plants-separated by species-were sown shallow. Preemergence treatment (soil treatment) was effected immediately after sowing and before germination of the seeds. Seeds lying on the surface came into contact with the active ingredients. Postemergence treatment (leaf treatment) took place at an average growth height of the plants (depending on the rate of growth) of from 6 to 10 cm. The substances were suspended, emulsified or dissolved in water as diluent and applied by means of fine nozzles. The vessels were kept in the greenhouse in a temperature range of 12° C. to 25° C., and were regularly sprinkler irrigated for the duration of the experiment. The observation period was 6 to 8 weeks.

[2] = test system: Hordeum vulgare; assay: Growth height of Gramineae (Example 11, Table B); format: in vivo; settings: Hordeum vulgare, 3.0 kg/ha, 0 = no inhibition, 100 = no growth, read-out: growth inhibition compared with untreated control
Text: as §1

[3] = test system: Lolium multifl.; assay: Growth height of Gramineae (Example 11, Table B); format: in vivo; settings: Lolium, 3.0 kg/ha, 0 = no inhibition, 100 = no growth, read-out: growth inhibition compared with untreated control
Text: as §1

[4] = test system: Setaria faberii; assay: Herbicidal action (Example 25); format: in vivo; settings: preemergence
Protocol: (§2) Paraffined paper cups having a volume of 170 cm^3 were filled with a sandy loam, and the seeds of the test plants sown therein, separated by species. (The species are also listed below.)
(§3) In the first group, treatment was effected immediately after sowing and before germination of the seeds (preemergence treatment=soil treatment). Shallow sown seeds not completely covered with soil came into contact with the active ingredients. In the second group, the plants were treated postemergence (=leaf treatment) at a growth height of from 2 to 8 cm, depending on the rate of growth and shape of the species concerned. The compounds were suspended or emulsified in water and applied with the aid of fine nozzles. The soil and plants were thoroughly sprinkler irrigated for the duration of the experiment. The cups were placed in the greenhouse and kept in the temperature range 12°-25° C. or 18°-35° C., depending on the temperature requirements of the various species. After 2 to 6 weeks the action was assessed visually on a 0 to 100 scale, 0 denoting no damage and 100 denoting plants not germinated or completely destroyed.

[5] = test system: Sinapis alba; assay: Herbicidal action (Example 25); format: in vivo; settings: pre-emergence, preemergence, read-out: percentage damage; for pest or weed control at 2000 g/ha: 2.0 kg/ha; for pest or weed control at 4000 g/ha: 4.0 kg/ha
Protocol: as §2, §3

[6] = test system: Sorghum halepense; assay: Herbicidal action (Example 25); format: in vivo; settings: preemergence
Protocol: as §2, §3

[7] = test system: Alopecurus myosuroides; assay: Herbicidal action (Example 25); format: in vivo; settings: Alopecurus myosuroides, pre-emergence, preemergence, read-out: percentage damage; for pest or weed control at 2000 g/ha: 2.0 kg/ha; for pest or weed control at 4000 g/ha: 4.0 kg/ha
Protocol: as §2, §3

[8] = test system: Cynodon dactylon; assay: Herbicidal action (Example 25); format: in vivo; settings: preemergence
Protocol: as §2, §3

[9] = test system: Cyperus esculentus; assay: Herbicidal action (Example 25); format: in vivo; settings: preemergence
Protocol: as §2, §3

[10] = test system: Digitaria sanguinalis; assay: Herbicidal action (Example 25); format: in vivo; settings: preemergence
Protocol: as §2, §3

[11] = test system: Euphorbia spp.; assay: Herbicidal action (Example 25); format: in vivo; settings: preemergence
Protocol: as §2, §3

[12] = test system: Ipomoea spp.; assay: Herbicidal action (Example 25); format: in vivo; settings: preemergence
Protocol: as §2, §3

[13] = test system: Matricaria chamomilla; assay: Herbicidal action (Example 25); format: in vivo; settings: preemergence, 2.0 kg/ha
Protocol: as §2, §3

[14] = test system: Panicum virgatum; assay: Herbicidal action (Example 25); format: in vivo; settings: preemergence, 2.0 kg/ha
Protocol: as §2, §3

[15] = test system: Poa annua; assay: Herbicidal action (Example 25); format: in vivo; settings: Poa annua, pre-emergence, preemergence, 2.0 kg/ha; read-out: percentage damage
Protocol: as §2, §3

[16] = test system: Stellaria media; assay: Herbicidal action (Example 25); format: in vivo; settings: preemergence, 2.0 kg/ha
Protocol: as §2, §3

[17] = test system: sugar beet; assay: Sugar content of sugar beet in the open (Example 21); format: in vivo, Beta vulgaris sap. altissima (Kleinwanzleben KAWPoly); settings: 2.0 kg/ha; for Sugar content in freshly lifted beet, absolute: control 12.6 a; for Sugar content in freshly lifted beet, relative increase: control 100
Text: The crop plant was Beta vulgaris sap. altissima, variety "Kleinwanzleben KAWPoly". The soil was a sandy loam (1.5% organic substance, pH 5.7). Mineral fertilization totalled 400 kg N, 100 kg P2 O5, and 100 kg K2 O per hectare. For chemical weed control, 2.5 kg/ha of 1-phenyl-4-amino-5-chloropyridazone-(6) was applied before emergence of the beet plants. Aphids were controlled with dimethoate (O,O-dimethyl-S-(N-methylcarbonylmethyl)-phosphorus dithioate). Sowing took place on Mar. 10, 1975. The beets were lifted comparatively early on Sept. 29, 1975. The active ingredient was applied with the aid of spraying equipment with fine nozzles, mounted on a tractor. The amount of water used for dispersion purposes was 780 liters/ha. Treatment was effected on 2 different dates and on different plots:
I--the beet had 5 to 7 true leaves;
II--five weeks before harvesting, on the well developed plants. The sugar content was determined from fresh beets immediately after lifting.

`Brc1ccc(N2C3C4CC(C5N=NC45)C32)cc1` (centres unmarked) gave an inhibition at 3000 g/ha ([1]; leaf treatment) of 50%, an inhibition at 3000 g/ha ([1]; soil treatment) of 40% and an inhibition at 3000 g/ha ([2]; leaf treatment) of 50%. For the same compound, the inhibition at 3000 g/ha ([2]; soil treatment) was 60%, the inhibition at 3000 g/ha ([3]; leaf treatment) was 50% and the inhibition at 3000 g/ha ([3]; soil treatment) was 50%.

Compound `c1ccc(CN2N=NC3C4CC(C5N=NC45)C32)cc1` (centres unmarked) [drawing 417] has a percentage damage ([4]; 2.0 kg/ha) of 80 percentage damage, a percentage damage ([4]; 4.0 kg/ha) of 90 percentage damage and a pest or weed control at 2000 g/ha [5] of 80%. For the same compound, the pest or weed control at 4000 g/ha [5] was 95%, the percentage damage ([6]; 2.0 kg/ha) was 90 percentage damage and the percentage damage ([6]; 4.0 kg/ha) was 90 percentage damage.

In the case of `Cc1ccc(N2N=NC3C4CC(C5N=NC45)C32)cc1` (centres unmarked) [drawing 413], the pest or weed control at 2000 g/ha [7] is reported as 40%, the pest or weed control at 4000 g/ha [7] is reported as 40% and the percentage damage ([8]; 2.0 kg/ha) is reported as 83 percentage damage. The percentage damage ([8]; 4.0 kg/ha) was 100 percentage damage, the percentage damage ([9]; 2.0 kg/ha) was 0 percentage damage and the percentage damage ([9]; 4.0 kg/ha) was 0 percentage damage. The percentage damage ([10]; 2.0 kg/ha) was 100 percentage damage, the percentage damage ([10]; 4.0 kg/ha) was 100 percentage damage and the percentage damage ([11]; 2.0 kg/ha) was 90 percentage damage. The percentage damage ([11]; 4.0 kg/ha) was 100 percentage damage, the percentage damage ([12]; 2.0 kg/ha) was 78 percentage damage and the percentage damage ([12]; 4.0 kg/ha) was 75 percentage damage.

`c1ccc(N2N=NC3C4CC(C5N=NC45)C32)cc1` (centres unmarked) [drawing 415] was tested, and the percentage damage [13] was 95 percentage damage, the percentage damage [14] was 100 percentage damage and the pest or weed control at 2000 g/ha [15] was 95%. The percentage damage ([4]; 2.0 kg/ha) was 97 percentage damage, the percentage damage ([4]; 4.0 kg/ha) was 100 percentage damage and the pest or weed control at 2000 g/ha [5] was 99%. It also gave a pest or weed control at 4000 g/ha [5] of 100%, a percentage damage ([6]; 2.0 kg/ha) of 75 percentage damage and a percentage damage ([6]; 4.0 kg/ha) of 100 percentage damage. The percentage damage [16] was 100 percentage damage.

`c1ccc(CN2N=NC3C4CC(C5N=NC45)C32)cc1` (centres unmarked) [drawing 412] showed a pest or weed control at 2000 g/ha [7] of 55%, a pest or weed control at 4000 g/ha [7] of 70% and a percentage damage ([8]; 2.0 kg/ha) of 80 percentage damage. The percentage damage ([8]; 4.0 kg/ha) was 100 percentage damage, the percentage damage ([9]; 2.0 kg/ha) was 55 percentage damage and the percentage damage ([9]; 4.0 kg/ha) was 55 percentage damage. The percentage damage ([12]; 2.0 kg/ha) was 0 percentage damage and the percentage damage ([12]; 4.0 kg/ha) was 10 percentage damage.

For `Brc1ccc(N2N=NC3C4CC(C5N=NC45)C32)cc1` (centres unmarked) [drawing 401], the “Sugar content in freshly lifted beet, absolute” value ([17]; date I (20.05.75), letter = Duncan group) was 14.35%, the “Sugar content in freshly lifted beet, relative increase” value ([17]; date I) was 113 and the “Sugar content in freshly lifted beet, absolute” value ([17]; date II (21.08.75), letters = Duncan group) was 13.85%. For the same compound, the “Sugar content in freshly lifted beet, relative increase” value ([17]; date II) was 110.

For `c1ccc(N2N=NC3C4CC(C5N=NC45)C32)cc1` (centres unmarked) [drawing 410], the pest or weed control at 4000 g/ha [7] was 85%, the percentage damage ([8]; 2.0 kg/ha) was 70 percentage damage and the percentage damage ([8]; 4.0 kg/ha) was 90 percentage damage. The percentage damage ([9]; 2.0 kg/ha) was 27 percentage damage, the percentage damage ([9]; 4.0 kg/ha) was 55 percentage damage and the percentage damage ([10]; 2.0 kg/ha) was 100 percentage damage. It also gave a percentage damage ([12]; 2.0 kg/ha) of 50 percentage damage and a percentage damage ([12]; 4.0 kg/ha) of 60 percentage damage.

Compound `O=S(=O)(c1ccccc1)N1C2C3CC(C4N=NC34)C21` (centres unmarked) [drawing 414] has a pest or weed control at 2000 g/ha [7] of 80%, a pest or weed control at 4000 g/ha [7] of 80% and a percentage damage ([8]; 2.0 kg/ha) of 90 percentage damage. The percentage damage ([8]; 4.0 kg/ha) was 100 percentage damage, the percentage damage ([9]; 2.0 kg/ha) was 0 percentage damage and the percentage damage ([9]; 4.0 kg/ha) was 0 percentage damage. For the same compound, the percentage damage ([10]; 2.0 kg/ha) was 68 percentage damage, the percentage damage ([10]; 4.0 kg/ha) was 90 percentage damage and the percentage damage ([11]; 2.0 kg/ha) was 65 percentage damage. The percentage damage ([11]; 4.0 kg/ha) was 90 percentage damage and the percentage damage ([12]; 2.0 kg/ha) was 78 percentage damage.
